Source: patent publication US20150104868A1, “Methods of Maintaining and Improving Biological Cell Function and Activity” (GARGILL INCORPORATED, priority 2012, published 2015)

Columns and labels:
erythrocytes = experiment: Radical-induced hemolysis of erythrocytes; format: cell-based; conditions: erythrocytes exposed to hyperglycemic conditions, 24 h incubation
7B2, PC1/3, PC2 = experiment: RT-PCR gene expression of insulin production related genes in 1.1E7 cells; format: cell-based, human; conditions: 1.1E7 cells, 10, 30, 45 mM glucose, 24 hours or 7 days, 5 mM ERT
Experimental: Cell culture: Human 1.1E7 beta cells were cultured in RPMI 1640 medium containing 10% fetal calf serum, 2 mM L-Glutamine and 1% penicillin/streptomycin. Cells were maintained at 37° C. in a 5% CO2 atmosphere.
Gene expression analysis: RNA was isolated from Qiazol suspended cells according to the manufacturer's protocol and quantified spectrophotometrically. Reverse transcription reaction was performed using 500 ng of RNA, which was reverse-transcribed into cDNA using iScript cDNA synthesis kit. Next, real time PCR was performed with a BioRad MyiQ iCycler Single Color RT-PCR detection system using Sensimix™Plus SYBR and Fluorescein, 5 μl diluted (10×) cDNA, and 0.3 μM primers in a total volume of 25 μl. PCR was conducted as follows: denaturation at 95° C. for 10 minutes, followed by 40 cycles of 95° C. for 15 seconds and 60° C. for 45 seconds. After PCR a melt curve (60-95° C.) was produced for product identification and purity. Actin was included as internal control. Data were analyzed using the MyIQ software system (Bio-Rad Laboratories BV, Veenendaal, the Netherlands) and were expressed as relative gene expression (fold change) using the 2^ΔΔCt method.
PC1/3 and PC2 are proprotein or prohormone covertases. […] 7B2 is a small neuroendocrine protein that is required for the production of active prohormone convertase 2 (PC2)

[1] = in vitro; cited from earlier work
[2] = tested on: Beta cells (Cell line: HIT-T15); experiment: HIT-T15 beta cell viability (trypan blue, Countess); format: cell-based; conditions: 6, 15 or 30 mM glucose 24 hours, with or without 5 mM ERT
Experimental: Beta cells (Cell line: HIT-T15) were obtained from supplier ATCC. The cells were seeded in 24 well plate (300,000 cells/well). After overnight attaching, the medium was removed and the cells were washed with HBSS. […] After 1 hour incubation, glucose solution was added to a final concentration of 6, 15, or 30 mM in the wells. Subsequently, the cells were incubated for 24 hours. After incubation, all cell material including medium and HBSS was collected and centrifuged (5 minutes, 500×g). The supernatant was removed and the cells were resuspended in 500 μl HBSS. The cell suspensions were diluted 1:1 in 0.4% trypan blue dye and loaded in a Countess Chamber. The cells were counted using the Countess cell counter, which calculated the viability (function and activity) of the cells.

[3] = tested on: Superoxide dismutases (total SOD, SOD1, SOD2); experiment: SOD activity, expression and protein levels in HUVEC; format: cell-based, human
Text: One of the reactive oxygen species of which the production is likely to be increased during hyperglycemia is the superoxide radical (O2•—), potentially due to an over-activation of the mitochondrial respiratory chain. Superoxide dismutases (SODs) constitute a family of enzymes that effectively reduces the amount of superoxide radicals by turning them into hydrogen peroxide and oxygen. SODs occur in the cytoplasma (copper, zinc SOD or SOD1) and in the mitochondrion (manganese SOD or SOD2). A third form (SOD3 or EC-SOD) is found extracellularly. […] Accordingly, the expression protein and activity levels of SOD2 (which is the inducible SOD) SOD1 and total SOD activity were studied.
The total SOD activity (U/mg protein), SOD1 activity, SOD2 activity, SOD2 expression (by RT-PCR), and SOD2 protein (by Western blot) were not affected by HGERT vs HG […].

HUVEC cells = experiment: Lipid peroxidation: malondialdehyde (MDA) in HUVEC; format: cell-based, human; conditions: 30 mM glucose, with or without 5 mM ERT
Experimental: The prepared cells were seeded in 6 well plates and T75 flasks and grown until 80% confluence. The medium was removed, and the cells were washed with Hank's Balanced Salt Solution (HBSS). […] The vehicle solution is the solvent for the test compounds, in this case being the medium without supplements. […] The cells described above were also incubated for 24 hours with a 7 mM, normal glucose (NG) solution or in some instances, with a 15 mM, intermediary glucose (IG) solution. See, for example, FIG. 6. Subsequently, the cells were incubated for 24 hours. The same protocol was used for incubation with Nε-(carboxymethyl)lysine (CML, final concentration 1 micromolar) and 1,3-morpholino sidnonimine (SIN-1, final concentration 0.5 mM).

In the case of `OC[C@@H](O)[C@@H](O)CO` [ERT, meso-1,2,3,4-tetrahydroxybutane], the radical-induced hemolysis (erythrocytes) is given as “able to inhibit radical-induced hemolysis”, the “gene expression of 7B2, PC1/3 and PC2” value (7B2, PC1/3, PC2) is given as “improved the expression of genes involved in the conversion of (pre)proinsulin to insulin” and the hydroxyl radical scavenging [1] is given as “effective in scavenging hydroxyl radicals”. The “superoxide or peroxynitrite scavenging activity” value [1] was “does not possess any superoxide or peroxynitrite scavenging activity”, the “viability (function and activity) of HIT-T15 cells” value [2] was “attenuated this decrease significantly” and the “total SOD activity, SOD1 activity, SOD2 activity, SOD2 expression (RT-PCR), SOD2 protein (Western blot)” value ([3]; HGERT vs HG) was “not affected”. The “transcription and protein levels of SOD2” value ([3]; HUVEC) was “did not affect transcription or the protein levels of SOD2”, the “total superoxide dismutase activity” value ([3]; hyperglycemic conditions, effect not significant) was “appeared to increase the total superoxide dismutase activity” and the “malondialdehyde (MDA), end product of lipid peroxidation” value (HUVEC cells) was “Neither the exposure of the HUVEC cells to 5 mM ERT and 30 mM glucose (HGERT) nor to HG aloneaffected”.
